Test results reported in PMC8608343 (PLoS ONE, 2021).
Converted amounts (≈) assume the structure as drawn.

Columns and labels:
[1] = tested on: Leishmania donovani amastigotes; experiment: ROS generation in treated amastigotes (H2DCFDA); format: cell-based; conditions: 100, 50 or 25 μM, 24 hrs
Procedure: (§1) The degree of reactive oxygen species (ROS) production in treated promastigote and amastigote cells of L. donovani were assessed using the H2DCFDA (2’,7’-dichlorodihydrofluorescein diacetate) rich fluorescent dye (MAK145 Sigma-Aldrich) ROS detection kit. […] Amoxicillin was used as a positive control for pro-oxidative generation while Vitamin C was used as a positive control for anti-oxidative potential. The treated and untreated cells were then suspended in PBS, washed, and resuspended in PBS, then incubated with the ROS detection master mix for 1 hr as instructed by the protocol. The cells were analyzed for intracellular ROS generation by measuring the fluorescence intensity which is proportional to the ROS production level using the Varioskan Lux Elisa microplate reader (Thermo Fischer Scientific, USA) at a wavelength of 605 nm.

[2] = tested on: Leishmania donovani promastigotes; experiment: ROS generation in treated promastigotes (H2DCFDA); format: cell-based; conditions: 100, 50 or 25 μM, 72 hrs
Procedure: as §1

[3] = tested on: Leishmania donovani promastigotes; experiment: Antileishmanial activity against promastigotes (MTT assay); format: cell-based; conditions: for IC50 (μg/ml) ±SD promastigote / IC50: 96 hrs at 25° C, MTT, mean of three experiments; for Therapeutic Index (TC50/IC50) promastigotes: TC50 RAW / IC50 promastigote; for IC50: Leishmania donovani, read-out: IC50 (μg/ml) ±SD promastigote
Source text: Amphotericin B was used as a positive control. The 3-(4,5-Dimethylthiazol-2-yl)-2,5-diphenyltetrazolium bromide (MTT) assay was used to determine the parasite viability as previously described.

[4] = tested on: Leishmania donovani amastigotes in RAW macrophage cells; experiment: Antileishmanial activity against macrophage-amastigotes (MTT assay); format: cell-based; conditions: for Therapeutic Index (TC50/IC50) amastigotes: TC50 RAW / IC50 amastigote; for IC50 (μg/ml) ±SD amastigote / IC50: amastigotes in RAW macrophages, MTT; for IC50: Leishmania donovani, Macrophage, read-out: IC50 (μg/ml) ±SD amastigote
Procedure: The RAW macrophage cells were infected with promastigotes at a density of 1:10 ratio, respectively for 12 hrs and the non-phagocytosed promastigotes and media removed by aspiration. The RAW macrophages cells containing the internalized amastigote cells were treated with the compounds to test for their growth inhibitory potentials as previously described. The 3-(4,5-Dimethylthiazol-2-yl)-2,5-diphenyltetrazolium bromide (MTT) assay was also used to determine the parasite viability. […] was measured with a Varioskan Lux Elisa plate reader at a wavelength of 570 nm.

[5] = tested on: RAW 264.7 murine macrophage cell line; experiment: Cytotoxicity against mammalian RAW macrophage cell line (MTT assay); conditions: 48 hrs, 50% cytotoxic concentration
Source text: Here, amphotericin B was used as a positive control and the negative control was untreated RAW cell line.

O+ human red blood cells = experiment: Haemolytic potential; conditions: 2% haematocrit, up to 100 μg/ml
Procedure: The compounds were tested against the O^+ human red blood cells (obtained from the Malaria laboratory of WACCBIP) at a density of 2% haematocrit for their ability to lyse erythrocytes upon incubation. Here, a concentration of up to 100 μg/ml of compounds was used, and the 50% haemolytic concentration (HC50) of the compounds were determined by analysis of dose-response curves as described.

[6] = tested on: Leishmania donovani promastigotes; experiment: Morphological and mitochondrion effects by fluorescence microscopy (DAPI, MitoTracker); format: cell-based; conditions: for morphological / mitochondrial changes after 72 hrs: 2x IC50, 72 hrs
Procedure: Their mitochondrial integrity were analyzed using a slightly modified DAPI and Mitotracker dye protocol as described by Amisigo and colleagues.

[7] = tested on: Leishmania donovani promastigotes; experiment: Growth kinetics and cytocidal/cytostatic (growth reversibility) assay; format: cell-based; conditions: 1 μg/ml, 120 hrs treatment, then 96 hrs in fresh media
Procedure: The compounds (at 1 μg/ml) were tested for their effects on the growth kinetic pattern against the promastigotes of L. donovani. The parasite cells (2 x 10^5 cells/ml) were incubated at 25° C in the presence of the test compounds in M199 supplemented with 10% FBS. Amphotericin B treated parasites (0–50 μg/ml) were used as the positive control while the untreated promastigotes in medium alone served as the negative control. Viable cells were counted every 24 hrs for a total of 120 hrs as indicated in previous studies.
The cytocidal/cytostatic effect of the test compounds were assessed by analyzing the treated and untreated parasites after 120 hrs of incubation. Cells were washed twice with fresh M199, resuspended in complete M199 media and incubated further for 96 hrs. The viable cells were then counted microscopically.

CC1(C)S[C@@H]2[C@H](NC(=O)[C@H](N)c3ccc(O)cc3)C(=O)N2[C@H]1C(=O)O [Amoxicillin, reference compound]
ROS generation effect in amastigotes [1]: pro-oxidative effect
ROS generation effect in promastigotes [2]: pro-oxidative action

C[C@@H]1[C@H](O)[C@@H](C)/C=C/C=C/C=C/C=C/C=C/C=C/C=C/[C@H](O[C@@H]2O[C@H](C)[C@@H](O)[C@H](N)[C@@H]2O)C[C@@H]2O[C@](O)(C[C@@H](O)C[C@@H](O)[C@H](O)CC[C@@H](O)C[C@@H](O)CC(=O)O[C@H]1C)C[C@H](O)[C@H]2C(=O)O [Amphotericin B, reference compound]
ROS generation effect in amastigotes [1]: anti-oxidative effect
ROS generation effect in promastigotes [2]: anti-oxidative effect

O=C(Nc1ccc2c(c1)B(O)OC2)c1ccccc1C(F)(F)F [Compound A03B]
IC50 (μg/ml) ±SD promastigote [3]: 0.44 ± 0.200 µg/mL (≈ 1.37 µM)
Therapeutic Index (TC50/IC50) promastigotes [3]: 0.41
Therapeutic Index (TC50/IC50) amastigotes [4]: 0.90
IC50 (μg/ml) ±SD amastigote [4]: 0.20 ± 0.030 µg/mL (≈ 0.623 µM)
TC50 (μg/ml) ±SD RAW [5]: 0.18 ± 0.050 µg/mL (≈ 0.561 µM)
HC50 (O+ human red blood cells): >100 µg/mL
ROS generation effect in amastigotes [1]: anti-oxidative effect
ROS generation effect in promastigotes [2]: anti-oxidative effect

O=C(NCc1nnc2n1CCCCC2)c1ccc(-c2ccc(F)cc2)o1 [Compound A06A]
IC50 [3]: 0.19 ± 0.008 µg/mL (≈ 0.536 µM)
Therapeutic Index (TC50/IC50) promastigotes [3]: 2.05
IC50 [4]: 0.38 ± 0.01 µg/mL (≈ 1.07 µM)
Therapeutic Index (TC50/IC50) amastigotes [4]: 1.03
TC50 (μg/ml) ±SD RAW [5]: 0.39 ± 0.05 µg/mL (≈ 1.1 µM)
HC50 (O+ human red blood cells): >100 µg/mL
ROS generation effect in promastigotes [2]: anti-oxidative effect
cells with slight enlargement of nuclear and kinetoplast DNA ([6]; 2x IC50, 24 hrs): 50%
morphological / mitochondrial changes after 72 hrs [6]: most of the few cells left lost their kinetoplast DNA

Clc1cccc(CO[C@H]2CCc3ccccc3[C@@H]2n2ccnn2)c1 [Compound A07E]
IC50 (μg/ml) ±SD promastigote [3]: >6.25 µg/mL
Therapeutic Index (TC50/IC50) promastigotes [3]: 0.07
Therapeutic Index (TC50/IC50) amastigotes [4]: 0.07
IC50 (μg/ml) ±SD amastigote [4]: >6.25 µg/mL
TC50 (μg/ml) ±SD RAW [5]: 0.41 ± 0.020 µg/mL (≈ 1.21 µM)
HC50 (O+ human red blood cells): >100 µg/mL

Cc1ncc(-c2ccnc(Nc3ccc(S(C)(=O)=O)cc3)n2)n1C(C)C [Compound B03B]
IC50 (μg/ml) ±SD promastigote [3]: 0.20 ± 0.040 µg/mL (≈ 0.538 µM)
Therapeutic Index (TC50/IC50) promastigotes [3]: 1.25
Therapeutic Index (TC50/IC50) amastigotes [4]: 0.63
IC50 (μg/ml) ±SD amastigote [4]: 0.40 ± 0.050 µg/mL (≈ 1.08 µM)
TC50 (μg/ml) ±SD RAW [5]: 0.25 ± 0.040 µg/mL (≈ 0.673 µM)
HC50 (O+ human red blood cells): >100 µg/mL
cytocidal/cytostatic effect upon drug withdrawal [7]: cytocidal effect
ROS generation effect in amastigotes [1]: anti-oxidative effect
ROS generation effect in promastigotes [2]: pro-oxidative action

COc1ccc(C2=NN(C3CCCCCC3)C(=O)[C@@H]3CC=CC[C@H]23)cc1OCCCCOc1ccc(-c2nn[nH]n2)cc1 [Compound C02B]
IC50 (μg/ml) ±SD promastigote [3]: 0.15 ± 0.130 µg/mL (≈ 0.257 µM)
Therapeutic Index (TC50/IC50) promastigotes [3]: 2.53
Therapeutic Index (TC50/IC50) amastigotes [4]: 2.92
IC50 (μg/ml) ±SD amastigote [4]: 0.13 ± 0.004 µg/mL (≈ 0.222 µM)
TC50 (μg/ml) ±SD RAW [5]: 0.38 ± 0.010 µg/mL (≈ 0.65 µM)
HC50 (O+ human red blood cells): >100 µg/mL
ROS generation effect in amastigotes [1]: anti-oxidative effect

CO[C@@H](C(=O)N1Cc2[nH]nc(NC(=O)c3ccc(N4CCN(C)CC4)cc3)c2C1)c1ccccc1 [Compound C03B]
IC50 (μg/ml) ±SD promastigote [3]: 0.62 ± 0.010 µg/mL (≈ 1.31 µM)
Therapeutic Index (TC50/IC50) promastigotes [3]: 0.34
IC50 (μg/ml) ±SD amastigote [4]: >6.25 µg/mL
TC50 (μg/ml) ±SD RAW [5]: 0.21 ± 0.010 µg/mL (≈ 0.443 µM)
HC50 (O+ human red blood cells): >100 µg/mL
ROS generation effect in promastigotes [2]: pro-oxidative action

c1ccc(Oc2ccc(-c3cc(C4CCOCC4)n[nH]3)cc2)cc1 [Compound D02A]
IC50 [3]: 0.21 ± 0.01 µg/mL (≈ 0.655 µM)
Therapeutic Index (TC50/IC50) promastigotes [3]: 476.19
IC50 [4]: 0.22 ± 0.02 µg/mL (≈ 0.687 µM)
Therapeutic Index (TC50/IC50) amastigotes [4]: 454.55
TC50 (μg/ml) ±SD RAW [5]: >100 µg/mL
HC50 (O+ human red blood cells): >100 µg/mL
morphological / mitochondrial changes after 24 hrs ([6]; 2x IC50, 24 hrs): degeneration in the mitochondria integrity
morphological / mitochondrial changes after 72 hrs [6]: degeneration of the nuclear and kinetoplast DNA continued

N=C(N)c1ccc(-c2cc(-c3ccccc3)on2)cc1 [Compound E02A]
IC50 [3]: 0.29 ± 0.001 µg/mL (≈ 1.1 µM)
Therapeutic Index (TC50/IC50) promastigotes [3]: 344.83
IC50 [4]: 5.34 ± 0.01 µg/mL (≈ 20.3 µM)
Therapeutic Index (TC50/IC50) amastigotes [4]: 18.73
TC50 (μg/ml) ±SD RAW [5]: >100 µg/mL
HC50 (O+ human red blood cells): >100 µg/mL
ROS generation effect in promastigotes [2]: anti-oxidative effect
morphological / mitochondrial changes after 24 hrs ([6]; 2x IC50, 24 hrs): did not show marked morphological changes
morphological / mitochondrial changes after 72 hrs [6]: degenerate after 72 hrs

CC1CCCCN1C(=O)NCCc1coc(-c2ccc(F)cc2)n1 (stereo not drawn) [Compound E05A]
IC50 (μg/ml) ±SD promastigote [3]: 0.39 ± 0.060 µg/mL (≈ 1.18 µM)
Therapeutic Index (TC50/IC50) promastigotes [3]: 256.41
Therapeutic Index (TC50/IC50) amastigotes [4]: 36.50
IC50 (μg/ml) ±SD amastigote [4]: 2.74 ± 0.100 µg/mL (≈ 8.27 µM)
TC50 (μg/ml) ±SD RAW [5]: >100 µg/mL
HC50 (O+ human red blood cells): >100 µg/mL
ROS generation effect in promastigotes [2]: anti-oxidative effect

CS(=O)(=O)c1ccccc1C(=O)N(Cc1ccccc1)c1ccccc1 [Compound H05A]
IC50 (μg/ml) ±SD promastigote [3]: 0.78 ± 0.170 µg/mL (≈ 2.13 µM)
Therapeutic Index (TC50/IC50) promastigotes [3]: 0.19
Therapeutic Index (TC50/IC50) amastigotes [4]: 0.60
IC50 (μg/ml) ±SD amastigote [4]: 0.25 ± 0.040 µg/mL (≈ 0.684 µM)
TC50 (μg/ml) ±SD RAW [5]: 0.15 ± 0.030 µg/mL (≈ 0.41 µM)
HC50 (O+ human red blood cells): >100 µg/mL
ROS generation effect in promastigotes [2]: anti-oxidative effect

CCN(CC)CCCCCCNc1cc(OC)cc2c(C)ccnc12 [MMV000063]
ROS generation effect in amastigotes [1]: anti-oxidative effect

CCC(=O)Nc1ccccc1C(=O)Nc1ccccn1 [MMV202553]
ROS generation effect in promastigotes [2]: anti-oxidative effect

CC(C)(C)OC(=O)N1CCN(c2cc(-c3ccc(Oc4ccccc4)cc3)n[nH]2)CC1 [MMV676057]
ROS generation effect in amastigotes [1]: pro-oxidative effect
ROS generation effect in promastigotes [2]: anti-oxidative effect

CCOc1ccc2cc(-c3nn(CC4CCN(C)CC4)c4ncnc(N)c34)ccc2c1 [MMV688854]
ROS generation effect in amastigotes [1]: anti-oxidative effect

CCc1nn(C)c(C(=O)NCc2ccc(Oc3ccc(C)cc3)cc2)c1Cl [MMV688934]
ROS generation effect in promastigotes [2]: anti-oxidative effect

CC(C)(C)C(O)C(Oc1ccc(-c2ccccc2)cc1)n1cncn1 (stereo not drawn) [MMV688942]
ROS generation effect in promastigotes [2]: anti-oxidative effect

Nc1ncnc2c1ncn2C[C@@H](O)[C@@H](O)C(=O)O [MMV689255]
ROS generation effect in amastigotes [1]: anti-oxidative effect

O=C1O[C@H]([C@@H](O)CO)C(O)=C1O [Vitamin C, reference compound]
ROS generation effect in amastigotes [1]: anti-oxidative effect
ROS generation effect in promastigotes [2]: anti-oxidative effect
